Assay [1] relates to TNF. As to conditions: prior art statement; cited from earlier work.
Assay [2] concerns parietal bones of fowl's embryo. The assay can be described thus: Osteogenesis stimulation: osteoclast activation test, 45Ca leakage (Table 9). Particulars: 1 unit/ml. Here is the method:
Stimulation of Osteogenesis
This stimulation was confirmed by an osteolast activation test.
Osteoclast cells are those in charge of absorbing bony tissue which destroy old bones in said tissue. […] As a result, the osteogenesis is presumed to be stimulated.
In the osteoclast activation test, parietal bones of fowl's embryo are used as experimental samples. That is, the parietal bones of fowl's embryo are labelled with ^45 Ca, and are cultured in a medium containing a medicine candidate (treated group) or in a said candidate-free medium (control group), and thereafter the quantity of the ^45 Ca remaining in the bones and that of the ^45 Ca leaked into the medium during culture are determined. The ^45 Ca leakage rates in both tile treated and control groups are calculated according to the following equation:
^45 Ca leakage rate=(Quantity of ^45 Ca leaked)/(Quantity of
remaining ^45 Ca+Quantity of ^45 Ca leaked)
The effect of the candidate is expressed by the following T/C rate:
T/C rate=(Quantity of ^45 Ca leaked in the treated group)/(Quantity of
^45 Ca leaked in the control group) […]
4) The medium (each, 250 μl) was added to 4.5 ml of ACSII scintillator (Amersham Co. In U.K.), and the counting was made on the basis of liquid scintillation to determine the quantity of the 45Ca leaked into the medium. […]

The values that follow come from patent US5382430A, “Method for the stimulation of the immune system of an animal by use of limulus test-positive plant glycolipid” (priority 1989, dated 1995).

Take sizofiran [Sonifilan]: the TNF productivity result in assay [1] was “no TNF productivity”. For the molecule polysaccharide K [PSK], the TNF productivity result in assay [1] is “no TNF productivity”. lentinan: the TNF productivity result in assay [1] is listed as “no TNF productivity”. `CC(C)C[C@H](NC(=O)[C@@H](O)[C@H](N)Cc1ccccc1)C(=O)O` [Bestatin, ubenimex]: in assay [1], the TNF productivity entry was “no TNF productivity”.

B1: parathyroid hormone (protein, UniProt P01270 32-115, looked up)
Parathyroid hormone: SVSEIQLMHNLGKHLNSMERVEWLRKKLQDVHNFVALGAPLAPRDAGSQRPRKKEDNVLVESHEKSLGEADKADVNVLTKAKSQ
notes: Already known parathyroid hormone which is a bony tissue absorbance hormone
With B1, in assay [2], the “45Ca leakage, Treated T” value is on record as 4.46 and the T/C rate was found to be 1.22.
